Source: ChEMBL document CHEMBL5661965, “CI-1033, a pan-erbB tyrosine kinase inhibitor” (Semin Oncol, 2001)

Columns and labels:
Format in all cases: functional
A-431 [1] = experiment: Antitumor activity against human A-431 cells xenografted in mouse assessed as average tumor volume at 1.25 to 10 mg/kg/day, po started on day 14 post-implant and measured on day 23 (reference value: >1200 mg); conditions: dose 1.25-10 mg/kg/day, time 23 day
A-431 [2] = experiment: Antitumor activity against human A-431 cells xenografted in mouse assessed as average tumor volume at 20 to 40 mg/kg/day, po started on day 14 post-implant and measured on day 23 (reference value: >1200 mg); conditions: dose 20-40 mg/kg/day, time 23 day
A-431 [3] = experiment: Antitumor activity against human A-431 cells xenografted in mouse assessed as reduction in average tumor volume at 1.25 to 40 mg/kg/day, po started on day 14 post-implant, stopped on day 66, and then restarted on day 76 for 2 additional weeks; conditions: dose 1.25-40 mg/kg/day, read-out: MED

C=CC(=O)Nc1cc2c(Nc3ccc(F)c(Cl)c3)ncnc2cc1OCCCN1CCOCC1.Cl.Cl [CANERTINIB DIHYDROCHLORIDE]
Activity (A-431 [1]): 175 mg | Activity (A-431 [2]): <=100 mg | minimal effective dose (A-431 [3]): 1.25 mg/kg/day
